Experimental data: ChEMBL document CHEMBL1201862, “PubChem BioAssay data set” (2004)
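Method: 48-hour compound exposure of cells in 96-well plates, five concentrations, linear interpolation of endpoints. GI50 = concentration required for 50% inhibition of growth.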 Calls of active or inactive are those of the source. Rule as the data show it: active = GI50 up to about 1.1 µM and inactive = higher.

Assays:
Assay in all cases: NCI anticancer screen, dose series, 48 h
SF-268 = test system: SF-268
SF-539 = test system: SF-539
M14 = test system: M14
SK-OV-3 = test system: SK-OV-3
RXF 393 = test system: RXF 393
U-251 = test system: U-251
UO-31 = test system: UO-31
SN12C = test system: SN12C
UACC-257 = test system: UACC-257
NCI-H460 = test system: NCI-H460
CAKI-1 = test system: CAKI-1
HCT-116 = test system: HCT-116
IGROV-1 = test system: IGROV-1
CCRF-CEM = test system: CCRF-CEM
KM12 = test system: KM12
RPMI-8226 = test system: RPMI-8226
OVCAR-5 = test system: OVCAR-5
HL-60 = test system: HL-60

Measured: GI50

Clc1ccc(-c2nnc3c4nnc(-c5ccc(Cl)cc5Cl)n4c4ccccc4n23)c(Cl)c1
inactive: SF-268 > 100 µM | SF-539 > 100 µM | M14 > 100 µM | SK-OV-3 > 100 µM | RXF 393 > 100 µM | U-251 > 100 µM | UO-31 > 100 µM | SN12C > 100 µM | UACC-257 > 100 µM | NCI-H460 > 100 µM | CAKI-1 > 100 µM | HCT-116 > 100 µM | IGROV-1 > 100 µM | CCRF-CEM > 100 µM | KM12 > 100 µM | RPMI-8226 > 100 µM | OVCAR-5 > 100 µM

COC(=O)/C(=N\NC(N)=O)C(C#N)c1ccccc1 (centres undefined)
inactive: SF-268 > 100 µM | SF-539 > 100 µM | M14 > 100 µM | SK-OV-3 > 100 µM | RXF 393 > 100 µM | U-251 > 100 µM | UO-31 > 100 µM | SN12C > 100 µM | UACC-257 > 100 µM | NCI-H460 > 100 µM | HCT-116 > 100 µM | CCRF-CEM > 100 µM | KM12 > 100 µM | RPMI-8226 > 100 µM | HL-60 > 100 µM | OVCAR-5 > 100 µM

Cc1c2ccccc2cc2ccc3oc([N+](=O)[O-])cc3c12
inactive: SF-268 > 100 µM | SF-539 > 100 µM | M14 4.46 µM | SK-OV-3 > 100 µM | RXF 393 > 100 µM | U-251 > 100 µM | UO-31 > 100 µM | SN12C > 100 µM | UACC-257 > 100 µM | NCI-H460 6.19 µM | CAKI-1 > 100 µM | HCT-116 > 100 µM | IGROV-1 > 100 µM | CCRF-CEM > 100 µM | KM12 > 100 µM | RPMI-8226 > 100 µM | HL-60 3.93 µM | OVCAR-5 > 100 µM

CC(C)=CCC/C(C)=C/Cc1c(O)c(C)cc2c1[nH]c1cc(O)ccc12
inactive: SF-268 > 25 µM | SF-539 > 25 µM | M14 > 25 µM | SK-OV-3 > 25 µM | RXF 393 > 25 µM | U-251 > 25 µM | UO-31 > 25 µM | SN12C > 25 µM | NCI-H460 > 25 µM | HCT-116 > 25 µM | IGROV-1 > 25 µM | CCRF-CEM > 25 µM | KM12 > 25 µM | RPMI-8226 > 25 µM | HL-60 > 25 µM | OVCAR-5 > 25 µM

N#Cc1nc(C2=C(Cl)c3ccccc3OC2)[nH]c1C#N
inactive: SF-268 32.6 µM | SF-539 17.1 µM | M14 19.4 µM | SK-OV-3 36.7 µM | RXF 393 13.9 µM | U-251 18.4 µM | UO-31 24 µM | SN12C 27.5 µM | NCI-H460 22 µM | CAKI-1 58.6 µM | IGROV-1 30.1 µM | CCRF-CEM 11.5 µM | KM12 26.1 µM | RPMI-8226 24.4 µM | HL-60 22.7 µM | OVCAR-5 38.5 µM

COc1ccc(/C=C2\N=C(c3ccccc3)OC2=O)c(OCc2ccccc2)c1
inactive: SF-268 54.2 µM | SF-539 24 µM | M14 49.7 µM | UO-31 > 100 µM | SN12C > 100 µM | UACC-257 > 10 µM | NCI-H460 53 µM | CAKI-1 85.1 µM | HCT-116 49.3 µM | IGROV-1 18.8 µM | CCRF-CEM 14.3 µM | KM12 33 µM | RPMI-8226 15.8 µM | HL-60 40.4 µM | OVCAR-5 > 100 µM

O/N=C1\CCCCC1C(NO)c1ccccc1 (centres undefined)
inactive: SF-268 98.9 µM | SF-539 > 100 µM | M14 > 100 µM | SK-OV-3 > 100 µM | RXF 393 > 100 µM | U-251 > 100 µM | UO-31 89.5 µM | SN12C > 100 µM | UACC-257 > 100 µM | NCI-H460 > 100 µM | HCT-116 > 100 µM | IGROV-1 > 100 µM | CCRF-CEM > 100 µM | KM12 > 100 µM | RPMI-8226 > 100 µM | HL-60 57.7 µM | OVCAR-5 > 100 µM

O=C(Cc1nc2ccccc2o1)C(=O)Nc1cccc(Cl)c1
inactive: SF-268 > 100 µM | SF-539 > 100 µM | M14 > 100 µM | SK-OV-3 > 100 µM | RXF 393 > 100 µM | U-251 > 100 µM | UO-31 > 100 µM | SN12C > 100 µM | UACC-257 > 100 µM | NCI-H460 > 100 µM | CAKI-1 > 100 µM | HCT-116 > 100 µM | IGROV-1 > 100 µM | CCRF-CEM > 100 µM | KM12 > 100 µM | HL-60 > 100 µM

CN(C)CCCn1cnc2ncccc2c1=O
inactive: SF-268 > 100 µM | SF-539 > 100 µM | M14 > 100 µM | SK-OV-3 > 100 µM | RXF 393 > 100 µM | U-251 > 100 µM | UO-31 > 100 µM | SN12C > 100 µM | NCI-H460 > 100 µM | CAKI-1 > 100 µM | HCT-116 > 100 µM | IGROV-1 > 100 µM | CCRF-CEM > 100 µM | KM12 > 100 µM | OVCAR-5 > 100 µM

CC1(C)CC(=O)C(/C(=N/NC(=S)NN)C(=O)Nc2nc3ccc([N+](=O)[O-])cc3s2)C(=O)C1
inactive: SF-268 > 100 µM | SF-539 > 100 µM | M14 > 100 µM | SK-OV-3 > 100 µM | RXF 393 > 100 µM | U-251 > 100 µM | UO-31 89.7 µM | SN12C > 100 µM | UACC-257 > 100 µM | NCI-H460 > 100 µM | CAKI-1 > 100 µM | HCT-116 > 100 µM | IGROV-1 > 100 µM | CCRF-CEM 38.2 µM | KM12 > 100 µM | HL-60 > 100 µM | OVCAR-5 > 100 µM

CC(Oc1ccc(OCC2CCCCC2)cc1)C(N)=O (centres undefined)
inactive: SF-268 > 100 µM | SF-539 > 100 µM | M14 > 100 µM | SK-OV-3 > 100 µM | U-251 > 100 µM | UO-31 > 100 µM | SN12C > 100 µM | UACC-257 72.3 µM | NCI-H460 > 100 µM | HCT-116 > 100 µM | CCRF-CEM > 100 µM | KM12 > 100 µM | HL-60 > 100 µM

O=C(C/C(=N\NC(=O)C[n+]1ccccc1)C(=O)Nc1nc2ccc([N+](=O)[O-])cc2s1)CC(c1ccccc1)c1c(O)c2ccccc2oc1=O (centres undefined)
inactive: SF-268 > 100 µM | SF-539 > 100 µM | M14 > 100 µM | SK-OV-3 > 100 µM | RXF 393 > 100 µM | UO-31 67.5 µM | SN12C > 100 µM | UACC-257 > 100 µM | NCI-H460 > 100 µM | CAKI-1 > 100 µM | HCT-116 > 100 µM | IGROV-1 > 100 µM | CCRF-CEM > 100 µM | KM12 > 100 µM | RPMI-8226 > 100 µM | HL-60 > 100 µM | OVCAR-5 > 100 µM

O=C1CCC(=O)C12CCc1ccccc12
inactive: SF-268 > 100 µM | M14 > 100 µM | SK-OV-3 > 100 µM | RXF 393 > 100 µM | U-251 > 100 µM | UO-31 > 100 µM | SN12C > 100 µM | NCI-H460 > 100 µM | CAKI-1 > 100 µM | IGROV-1 > 100 µM | HL-60 > 100 µM

CCOC(=O)C(Cc1c(C=O)[nH]c2ccccc12)(NC(=O)c1ccccc1)C(=O)OCC
inactive: SF-268 15 µM | SF-539 16.3 µM | M14 17 µM | SK-OV-3 23.9 µM | RXF 393 11 µM | U-251 11.6 µM | UO-31 16.1 µM | SN12C 13.2 µM | UACC-257 16.9 µM | NCI-H460 24.3 µM | IGROV-1 20.4 µM | CCRF-CEM 6.87 µM | KM12 10.3 µM | RPMI-8226 > 100 µM | HL-60 > 100 µM | OVCAR-5 20.5 µM

c1ccc(CSc2nc3ccccc3nc2-c2cccs2)cc1
inactive: SF-268 > 100 µM | SF-539 > 100 µM | M14 > 100 µM | SK-OV-3 > 100 µM | U-251 > 100 µM | UO-31 > 100 µM | SN12C > 100 µM | UACC-257 > 100 µM | NCI-H460 > 100 µM | HCT-116 > 100 µM | IGROV-1 > 100 µM | CCRF-CEM 92.9 µM | KM12 > 100 µM | RPMI-8226 > 100 µM | HL-60 > 100 µM | OVCAR-5 > 100 µM

Cc1ccccc1NC(=O)c1cc(-c2ccc([N+](=O)[O-])cc2)nc(S)n1
inactive: SF-268 > 100 µM | SF-539 > 100 µM | M14 > 100 µM | SK-OV-3 > 100 µM | RXF 393 > 100 µM | U-251 > 100 µM | UO-31 > 100 µM | SN12C > 100 µM | UACC-257 > 100 µM | NCI-H460 > 100 µM | CAKI-1 > 100 µM | HCT-116 > 100 µM | IGROV-1 > 100 µM | CCRF-CEM > 10 µM | KM12 > 100 µM | HL-60 > 100 µM | OVCAR-5 > 100 µM

O=C(/C=C/c1ccc(O)c(O)c1)OC1C[C@@](O)(C(=O)O)C[C@@H](O)[C@H]1OC(=O)/C=C/c1ccc(O)c(O)c1 (some centres undefined)
inactive: SF-268 > 100 µM | SF-539 > 100 µM | M14 > 100 µM | SK-OV-3 > 100 µM | RXF 393 > 100 µM | U-251 > 100 µM | UO-31 > 100 µM | UACC-257 > 100 µM | NCI-H460 > 100 µM | HCT-116 > 100 µM | IGROV-1 > 100 µM | CCRF-CEM > 100 µM | KM12 > 100 µM | RPMI-8226 > 100 µM | HL-60 > 100 µM | OVCAR-5 > 100 µM
